{
  "source": "patent US20250082624A1",
  "about": "“METHODS OF TREATING COGNITIVE IMPAIRMENT” (NeuroTherapia, Inc., priority 2023, published 2025)",
  "assay": "Phase 1b MAD plasma pharmacokinetics, non-compartmental analysis",
  "format": "in vivo, human",
  "settings": "human, plasma, po",
  "description": "Methods: All study procedures were approved by the IRB, and informed consent was obtained. Three cohorts of volunteers 45-80 years of age with well-controlled comorbidities (NOAD) and one cohort of AD patients diagnosed with cognitive impairment consistent with prodromal AD per International Working Group criteria or mild AD per National Institute on Aging—Alzheimer's Association criteria (n=6 active, 2 placebo per cohort) were enrolled. Participants were admitted to the study site for the duration of the dosing and returned 7-12 days after the last dose for a safety visit. Participants received NTRX-07 (10, 30, or 90 mg) or a placebo in a double-blinded randomization orally once daily for seven days. Subjects were assessed for changes in vital signs, including maneuvers to induce lightheadedness, electrocardiograms, 24-hour electroencephalograms (EEG), and safety laboratory studies. The second cohort returned and received a single repeat dose after a standard high-fat meal. The AD cohort also underwent cognitive testing and had blood samples for biomarkers drawn. Subjects had PK sampling done after the first and final dose of the study drug. An independent safety review committee conducted a blinded safety review of adverse events and plasma levels between each cohort.\nAll subjects had PK sampling done after the first and final dose of the study drug.\n(§1) Raw bioanalytical data were received from Nuvisan following analysis of plasma samples from each of four cohorts. PK parameters were calculated by noncompartmental analysis using standard equations. Specifically, area under the plasma concentration versus time curve (AUC) was calculated using the trapezoid rule. Maximal plasma concentration (Cmax) and time of maximal plasma concentration (Tmax) were taken directly from the data. Clearance divided by bioavailability (Cl/F) was calculated as the dose divided by the AUC. Apparent volume of distribution over bioavailability (Vd/F) was calculated as dose divided by Cmax.\nWith oral administration of the dose every 24 hours for 7 days, blood samples were taken over a 24-hour interval on Days 1 and 7 and before and after dosing on Day 3.\nas §1, with “on Oct. 27, 2022. […]” for “following analysis of plasma samples from each of four cohorts. PK parameters were calculated by noncompartmental analysis using standard equations.”\nas §1, with “on Nov. 24, 2022. […]” for “following analysis of plasma samples from each of four cohorts. PK parameters were calculated by noncompartmental analysis using standard equations.”\nas §1, with “on Dec. 19, 2022. […]” for “following analysis of plasma samples from each of four cohorts. PK parameters were calculated by noncompartmental analysis using standard equations.”\nRaw bioanalytical data were received from Nuvisan on Jun. 30, 2023. […] Specifically, area under the plasma concentration versus time curve (AUC) was calculated using the trapezoid rule. Maximal plasma concentration (Cmax) and time of maximal plasma concentration (Tmax) were taken directly from the data. […]",
  "note": "Read-outs that look alike come from different tables or passages of the source.",
  "data": [
    {"smiles": "CC1(Cc2ccccc2)COc2cc(C(=O)N3CCCCC3)ccc21", "note": "(centres unmarked) [NTRX-07, 3-benzyl-3-methyl-2,3-dihydrobenzofuran-6-carboxylic acid-piperidine amide]", "values": [
      {"measurement": "Cmax", "setting": "10 mg, Table 10: Cohort A, 10 mg QD oral, Day 7, mean ± S.D., read-out: Cmax", "value": "37.7 ± 15.9", "unit": "ng/mL"},
      {"measurement": "Tmax", "setting": "10 mg, Table 10: Cohort A, 10 mg QD oral, Day 7, mean ± S.D., read-out: Tmax", "value": "48 ± 18", "unit": "min"},
      {"measurement": "Vd/F", "setting": "10 mg, Table 10: Cohort A, 10 mg QD oral, Day 7, mean ± S.D., read-out: Vd/F", "value": "307 ± 126", "unit": "L"},
      {"measurement": "Tmax", "setting": "10 mg, Table 19 (interim): Cohort A, 40 mg SDD (10 mg NTRX-07) QD oral, Day 1, individual subjects, read-out: Tmax", "value": 30, "unit": "min"},
      {"measurement": "AUC over 24 h (AUC0-24)", "setting": "10 mg, Table 19 (interim): Cohort A, 40 mg SDD (10 mg NTRX-07) QD oral, Day 1, mean ± S.D.", "value": "93 ± 0.9", "unit": "ng·h/mL"},
      {"measurement": "Cmax", "setting": "10 mg, Table 19 (interim): Cohort A, 40 mg SDD (10 mg NTRX-07) QD oral, Day 1, mean ± S.D., read-out: Cmax", "value": "35.6 ± 12.8", "unit": "ng/mL"},
      {"measurement": "Tmax", "setting": "10 mg, Table 19 (interim): Cohort A, 40 mg SDD (10 mg NTRX-07) QD oral, Day 1, mean ± S.D., read-out: Tmax", "value": "42 ± 18", "unit": "min"},
      {"measurement": "Vd/F", "setting": "10 mg, Table 19 (interim): Cohort A, 40 mg SDD (10 mg NTRX-07) QD oral, Day 1, mean ± S.D., read-out: Vd/F", "value": "1280 ± 544", "unit": "L"},
      {"measurement": "Tmax", "setting": "10 mg, Table 20 (interim): Cohort A, 40 mg SDD (10 mg NTRX-07) QD oral, Day 7, individual subjects, read-out: Tmax", "value": 30, "unit": "min"},
      {"measurement": "AUC over 24 h (AUC0-24)", "setting": "10 mg, Table 20 (interim): Cohort A, 40 mg SDD (10 mg NTRX-07) QD oral, Day 7, mean ± S.D.", "value": "94.4 ± 66.8", "unit": "ng·h/mL"},
      {"measurement": "Cmax", "setting": "10 mg, Table 20 (interim): Cohort A, 40 mg SDD (10 mg NTRX-07) QD oral, Day 7, mean ± S.D., read-out: Cmax", "value": "37.7 ± 15.9", "unit": "ng/mL"},
      {"measurement": "Tmax", "setting": "10 mg, Table 20 (interim): Cohort A, 40 mg SDD (10 mg NTRX-07) QD oral, Day 7, mean ± S.D., read-out: Tmax", "value": "48 ± 18", "unit": "min"},
      {"measurement": "Vd/F", "setting": "10 mg, Table 20 (interim): Cohort A, 40 mg SDD (10 mg NTRX-07) QD oral, Day 7, mean ± S.D., read-out: Vd/F", "value": "1230 ± 506", "unit": "L"},
      {"measurement": "AUC(0-t)", "setting": "30 mg, Cohort B Fed, single 30 mg oral dose after high-fat meal, mean ± SD, read-out: Average of AUC24 h", "value": "390 ± 280", "unit": "ng·h/mL"},
      {"measurement": "Cmax", "setting": "30 mg, Cohort B Fed, single 30 mg oral dose after high-fat meal, mean ± SD, read-out: Average of Cmax", "value": "60 ± 37", "unit": "ng/mL"},
      {"measurement": "Tmax", "setting": "30 mg, Cohort B Fed, single 30 mg oral dose after high-fat meal, mean ± SD, read-out: Average of Tmax", "value": "144 ± 108", "unit": "min"},
      {"measurement": "Vd/F", "setting": "30 mg, Cohort B Fed, single 30 mg oral dose after high-fat meal, mean ± SD, read-out: Average of Vd/F", "value": "699 ± 424", "unit": "L"},
      {"measurement": "AUC(0-t)", "setting": "30 mg, Cohort B healthy, 30 mg QD oral, Day 1, mean ± SD, read-out: Average of AUC24 h", "value": "328 ± 213", "unit": "ng·h/mL"},
      {"measurement": "Cmax", "setting": "30 mg, Cohort B healthy, 30 mg QD oral, Day 1, mean ± SD, read-out: Average of Cmax", "value": "109 ± 58", "unit": "ng/mL"},
      {"measurement": "Tmax", "setting": "30 mg, Cohort B healthy, 30 mg QD oral, Day 1, mean ± SD, read-out: Average of Tmax", "value": "54 ± 30", "unit": "min"},
      {"measurement": "Vd/F", "setting": "30 mg, Cohort B healthy, 30 mg QD oral, Day 1, mean ± SD, read-out: Average of Vd/F", "value": "349 ± 175", "unit": "L"},
      {"measurement": "AUC(0-t)", "setting": "30 mg, Cohort B healthy, 30 mg QD oral, Day 7, mean ± SD, read-out: Average of AUC24 h", "value": "236 ± 186", "unit": "ng·h/mL"},
      {"measurement": "Cmax", "setting": "30 mg, Cohort B healthy, 30 mg QD oral, Day 7, mean ± SD, read-out: Average of Cmax", "value": "120 ± 79", "unit": "ng/mL"},
      {"measurement": "Tmax", "setting": "30 mg, Cohort B healthy, 30 mg QD oral, Day 7, mean ± SD, read-out: Average of Tmax", "value": "36 ± 12", "unit": "min"},
      {"measurement": "Vd/F", "setting": "30 mg, Cohort B healthy, 30 mg QD oral, Day 7, mean ± SD, read-out: Average of Vd/F", "value": "391 ± 235", "unit": "L"},
      {"measurement": "AUC(0-t)", "setting": "30 mg, Table 11: Cohort B, 30 mg QD oral, Day 1, mean ± S.D., read-out: AUClast", "value": "328 ± 213", "unit": "ng·h/mL"},
      {"measurement": "Cmax", "setting": "30 mg, Table 11: Cohort B, 30 mg QD oral, Day 1, mean ± S.D., read-out: Cmax", "value": "109 ± 58", "unit": "ng/mL"},
      {"measurement": "Tmax", "setting": "30 mg, Table 11: Cohort B, 30 mg QD oral, Day 1, mean ± S.D., read-out: Tmax", "value": "54 ± 30", "unit": "min"},
      {"measurement": "Vd/F", "setting": "30 mg, Table 11: Cohort B, 30 mg QD oral, Day 1, mean ± S.D., read-out: Vd/F", "value": "349 ± 175", "unit": "L"},
      {"measurement": "Tmax", "setting": "30 mg, Table 12: Cohort B, 30 mg QD oral, Day 7, individual subjects, read-out: Tmax", "value": 30, "unit": "min"},
      {"measurement": "AUC(0-t)", "setting": "30 mg, Table 12: Cohort B, 30 mg QD oral, Day 7, mean ± S.D., read-out: AUClast", "value": "236 ± 186", "unit": "ng·h/mL"},
      {"measurement": "Cmax", "setting": "30 mg, Table 12: Cohort B, 30 mg QD oral, Day 7, mean ± S.D., read-out: Cmax", "value": "120 ± 79", "unit": "ng/mL"},
      {"measurement": "Tmax", "setting": "30 mg, Table 12: Cohort B, 30 mg QD oral, Day 7, mean ± S.D., read-out: Tmax", "value": "36 ± 12", "unit": "min"},
      {"measurement": "Vd/F", "setting": "30 mg, Table 12: Cohort B, 30 mg QD oral, Day 7, mean ± S.D., read-out: Vd/F", "value": "391 ± 234", "unit": "L"},
      {"measurement": "AUC(0-t)", "setting": "30 mg, Table 13: Cohort B Fed, 30 mg oral, fed state, mean ± S.D., read-out: AUClast", "value": "390 ± 280", "unit": "ng·h/mL"},
      {"measurement": "Cmax", "setting": "30 mg, Table 13: Cohort B Fed, 30 mg oral, fed state, mean ± S.D., read-out: Cmax", "value": "60 ± 37", "unit": "ng/mL"},
      {"measurement": "Tmax", "setting": "30 mg, Table 13: Cohort B Fed, 30 mg oral, fed state, mean ± S.D., read-out: Tmax", "value": "144 ± 108", "unit": "min"},
      {"measurement": "Vd/F", "setting": "30 mg, Table 13: Cohort B Fed, 30 mg oral, fed state, mean ± S.D., read-out: Vd/F", "value": "699 ± 424", "unit": "L"},
      {"measurement": "AUC(0-t)", "setting": "90 mg, Cohort C healthy, 90 mg QD oral, Day 1, mean ± SD, read-out: Average of AUC24 h", "value": "1270 ± 509", "unit": "ng·h/mL"},
      {"measurement": "Cmax", "setting": "90 mg, Cohort C healthy, 90 mg QD oral, Day 1, mean ± SD, read-out: Average of Cmax", "value": "400 ± 202", "unit": "ng/mL"},
      {"measurement": "Tmax", "setting": "90 mg, Cohort C healthy, 90 mg QD oral, Day 1, mean ± SD, read-out: Average of Tmax", "value": "138 ± 132", "unit": "min"},
      {"measurement": "Vd/F", "setting": "90 mg, Cohort C healthy, 90 mg QD oral, Day 1, mean ± SD, read-out: Average of Vd/F", "value": "337 ± 316", "unit": "L"},
      {"measurement": "AUC(0-t)", "setting": "90 mg, Cohort C healthy, 90 mg QD oral, Day 7, mean ± SD, read-out: Average of AUC24 h", "value": "741 ± 357", "unit": "ng·h/mL"},
      {"measurement": "Cmax", "setting": "90 mg, Cohort C healthy, 90 mg QD oral, Day 7, mean ± SD, read-out: Average of Cmax", "value": "189 ± 95", "unit": "ng/mL"},
      {"measurement": "Tmax", "setting": "90 mg, Cohort C healthy, 90 mg QD oral, Day 7, mean ± SD, read-out: Average of Tmax", "value": "78 ± 60", "unit": "min"},
      {"measurement": "AUC(0-t)", "setting": "90 mg, Cohort D AD patients, 90 mg QD oral, Day 1, mean ± SD, read-out: Average of AUC24 h", "value": "1560 ± 605", "unit": "ng·h/mL"},
      {"measurement": "Cmax", "setting": "90 mg, Cohort D AD patients, 90 mg QD oral, Day 1, mean ± SD, read-out: Average of Cmax", "value": "478 ± 154", "unit": "ng/mL"},
      {"measurement": "Tmax", "setting": "90 mg, Cohort D AD patients, 90 mg QD oral, Day 1, mean ± SD, read-out: Average of Tmax", "value": "66 ± 36", "unit": "min"},
      {"measurement": "Vd/F", "setting": "90 mg, Cohort D AD patients, 90 mg QD oral, Day 1, mean ± SD, read-out: Average of Vd/F", "value": "211 ± 90", "unit": "L"},
      {"measurement": "AUC(0-t)", "setting": "90 mg, Cohort D AD patients, 90 mg QD oral, Day 7, mean ± SD, read-out: Average of AUC24 h", "value": "806 ± 196", "unit": "ng·h/mL"}
    ]}
  ]
}
